Results reported in US8003660B2, “Modulators of muscarinic receptors” (Vertex Pharmaceuticals Incorporated, priority 2006, dated 2011).

How the values were obtained:
Type in all cases: cell-based
M3 muscarinic receptor = biological target: T1, M3 muscarinic receptor (Homo sapiens, UniProt P20309); experiment: Functional mobilization of intracellular calcium (FLIPR) in CHO cells expressing M3; settings: for EC50: CHO cells expressing M3, FLIPR calcium; for Emax: CHO, 100% = maximum response obtained with the Carbachol control, read-out: M3 Efficacy
T1 construct: expressed in transfected cells; host or cells: CHO (M3-CHO)
T1 sequence (P20309 whole entry): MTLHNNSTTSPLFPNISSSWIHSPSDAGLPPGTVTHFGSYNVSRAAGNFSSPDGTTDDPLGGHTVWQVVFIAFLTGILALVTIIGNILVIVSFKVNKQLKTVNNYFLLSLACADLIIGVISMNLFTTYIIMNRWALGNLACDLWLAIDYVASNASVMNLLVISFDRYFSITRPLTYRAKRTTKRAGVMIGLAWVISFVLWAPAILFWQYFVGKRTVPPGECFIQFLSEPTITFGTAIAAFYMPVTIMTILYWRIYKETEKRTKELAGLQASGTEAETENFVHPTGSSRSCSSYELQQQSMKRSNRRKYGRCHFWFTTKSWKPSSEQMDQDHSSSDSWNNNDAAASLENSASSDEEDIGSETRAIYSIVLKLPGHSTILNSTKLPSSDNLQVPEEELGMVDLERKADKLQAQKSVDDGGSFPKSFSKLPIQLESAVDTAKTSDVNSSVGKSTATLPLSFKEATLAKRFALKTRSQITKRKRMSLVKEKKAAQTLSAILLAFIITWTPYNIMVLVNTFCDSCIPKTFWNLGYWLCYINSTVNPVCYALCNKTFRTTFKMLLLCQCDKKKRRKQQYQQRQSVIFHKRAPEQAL
Method in brief: (§1)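 Recombinant CHO cells loaded with Fluo-3 AM or Calcium 3 dye in pH 7.4 buffer containing 1 mM probenecid, with 0.5% final DMSO. For agonism, compound is added directly. For inhibition, it is preincubated 15 min, or co-applied, before carbachol at EC80. FLIPR fluorescence (ex 488, em 540 nm) is recorded for 60 s.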

M4 muscarinic receptor = biological target: T2, M4 muscarinic receptor (Homo sapiens, UniProt P08173); experiment: Functional mobilization of intracellular calcium (FLIPR) in CHO cells expressing M4; settings: for EC50: CHO cells expressing M4, FLIPR calcium; for Emax: CHO, 100% = maximum response obtained with the Carbachol control, read-out: M4 Efficacy
T2 construct: expressed in transfected cells; host or cells: CHO (M4-CHO)
T2 sequence (P08173 1-479): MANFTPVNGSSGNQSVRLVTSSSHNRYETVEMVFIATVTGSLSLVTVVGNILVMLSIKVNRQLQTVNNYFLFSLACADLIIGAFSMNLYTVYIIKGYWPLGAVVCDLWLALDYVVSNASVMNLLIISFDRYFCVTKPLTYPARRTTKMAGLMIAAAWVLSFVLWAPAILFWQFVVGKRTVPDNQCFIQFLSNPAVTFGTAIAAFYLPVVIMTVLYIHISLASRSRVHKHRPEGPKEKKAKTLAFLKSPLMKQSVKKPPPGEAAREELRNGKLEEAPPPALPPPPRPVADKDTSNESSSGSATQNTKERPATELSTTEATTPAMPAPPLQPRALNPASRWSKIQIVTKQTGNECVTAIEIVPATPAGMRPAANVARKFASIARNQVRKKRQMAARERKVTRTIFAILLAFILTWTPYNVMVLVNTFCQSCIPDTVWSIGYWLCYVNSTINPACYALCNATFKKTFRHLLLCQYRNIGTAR
Method in brief: as §1

M1 muscarinic receptor = biological target: T3, M1 muscarinic receptor (Homo sapiens, UniProt P11229); experiment: Functional mobilization of intracellular calcium (FLIPR) in CHO cells expressing M1; settings: for EC50: CHO cells expressing M1, FLIPR calcium; for Emax: CHO, 100% = maximum response obtained with the Carbachol control, read-out: M1 Efficacy
T3 construct: expressed in transfected cells; host or cells: CHO (M1-CHO)
T3 sequence (P11229 1-460): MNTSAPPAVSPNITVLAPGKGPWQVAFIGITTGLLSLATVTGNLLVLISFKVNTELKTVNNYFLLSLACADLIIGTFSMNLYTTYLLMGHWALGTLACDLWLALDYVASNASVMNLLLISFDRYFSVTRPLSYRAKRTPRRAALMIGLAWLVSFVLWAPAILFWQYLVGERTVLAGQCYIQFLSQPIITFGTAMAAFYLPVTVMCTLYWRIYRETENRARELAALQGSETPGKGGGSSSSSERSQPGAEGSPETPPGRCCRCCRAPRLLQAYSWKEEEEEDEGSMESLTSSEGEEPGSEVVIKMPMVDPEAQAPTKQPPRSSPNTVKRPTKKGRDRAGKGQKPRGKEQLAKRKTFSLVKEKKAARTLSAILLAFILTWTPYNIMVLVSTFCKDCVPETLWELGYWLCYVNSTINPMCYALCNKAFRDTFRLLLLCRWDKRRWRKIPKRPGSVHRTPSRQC
Method in brief: as §1

M2 muscarinic receptor = biological target: T4, M2 muscarinic receptor (Homo sapiens, UniProt P08172); experiment: Functional mobilization of intracellular calcium (FLIPR) in CHO cells expressing M2; settings: for EC50: CHO cells expressing M2, FLIPR calcium; for Emax: CHO, 100% = maximum response obtained with the Carbachol control, read-out: M2 Efficacy
T4 construct: expressed in transfected cells; host or cells: CHO (M2-CHO)
T4 sequence (P08172 1-466): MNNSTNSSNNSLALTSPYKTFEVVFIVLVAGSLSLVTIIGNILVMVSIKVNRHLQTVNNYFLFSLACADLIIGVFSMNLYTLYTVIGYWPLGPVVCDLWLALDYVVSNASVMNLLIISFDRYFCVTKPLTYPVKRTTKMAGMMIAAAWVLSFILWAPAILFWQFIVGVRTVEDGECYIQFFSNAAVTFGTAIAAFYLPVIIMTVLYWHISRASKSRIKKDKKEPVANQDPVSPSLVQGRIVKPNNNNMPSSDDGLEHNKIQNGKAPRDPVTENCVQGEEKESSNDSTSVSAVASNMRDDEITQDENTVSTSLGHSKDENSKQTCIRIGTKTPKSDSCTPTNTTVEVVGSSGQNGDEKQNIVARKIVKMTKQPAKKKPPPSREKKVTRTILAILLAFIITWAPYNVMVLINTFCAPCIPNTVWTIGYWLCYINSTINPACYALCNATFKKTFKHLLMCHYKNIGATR
Method in brief: as §1

Row | SMILES | EC50 (M3 muscarinic receptor) | Emax (M3 muscarinic receptor) | EC50 (M4 muscarinic receptor) | Emax (M4 muscarinic receptor) | EC50 (M1 muscarinic receptor) | Emax (M1 muscarinic receptor) | EC50 (M2 muscarinic receptor) | Emax (M2 muscarinic receptor)
1 | CC(C)(C)CCN1CCC2(CC1)CC(F)(F)C(O)c1ccccc12 (stereo not shown) [compound 120] | > 5 µM | < 25% | < 2 µM | 25 to 100% | < 2 µM | 25 to 100% | < 2 µM | 25 to 100%
2 | CC(=O)N1CCCC(C(=O)N[C@H]2CCC3(CCN(CCC(C)(C)C)CC3)c3ccccc32)C1 (stereo partly shown) [compound 121] | > 5 µM | < 25% | < 2 µM | 25 to 100% | < 2 µM | 25 to 100% | > 5 µM | < 25%
3 | CC(=O)N(C1CC1)C1CCC2(CCN(CCC(C)(C)C)CC2)c2ccccc21 (stereo not shown) [compound 122] | > 5 µM | < 25% | < 2 µM | 25 to 100% | < 2 µM | 25 to 100% | > 5 µM | < 25%
4 | CC(=O)N(C)[C@H]1CCC2(CCN(CCC(C)(C)C)CC2)c2ccccc21 [compound 123] | > 5 µM | < 25% | < 2 µM | 25 to 100% | < 2 µM | 25 to 100% | > 5 µM | < 25%
5 | CC(C)(C)CCN1CCC2(CC[C@H](NC(=O)CCN3CCCC3=O)c3ccccc32)CC1 [compound 124] | > 5 µM | < 25% | < 2 µM | 25 to 100% | < 2 µM | 25 to 100% | < 2 µM | 25 to 100%
6 | CC(C)CCN1CCC2(CC[C@H](NC(=O)C3CC3)c3ccccc32)CC1 [compound 125] | > 5 µM | < 25% | < 2 µM | 25 to 100% | < 2 µM | 25 to 100% | 2 to 5 µM | < 25%
7 | CC(C)[C@@H](C(=O)N[C@@H]1CCC2(CCN(CCC(C)(C)C)CC2)c2ccccc21)N1CCCC1=O [compound 126] | > 5 µM | < 25% | < 2 µM | 25 to 100% | > 5 µM | < 25% | > 5 µM | < 25%
8 | CCN(C(=O)CCC(=O)NC)[C@H]1CCC2(CCN(CCC(C)(C)C)CC2)c2ccccc21 [compound 127] | > 5 µM | < 25% | < 2 µM | 25 to 100% | < 2 µM | 25 to 100% | 2 to 5 µM | < 25%
9 | CCN(C(=O)c1cncn1C)[C@H]1CCC2(CCN(CCC(C)(C)C)CC2)c2ccccc21 [compound 128] | > 5 µM | < 25% | < 2 µM | 25 to 100% | 2 to 5 µM | 25 to 100% | > 5 µM | < 25%
10 | Cn1cc(C(=O)N[C@@H]2CCC3(CCN(CCC(C)(C)C)CC3)c3ccccc32)cn1 [compound 129] | > 5 µM | < 25% | < 2 µM | 25 to 100% | > 5 µM | < 25% | > 5 µM | < 25%
11 | CC(=O)N1CCC(C(=O)N(C)[C@H]2CCC3(CCN(CCC(C)(C)C)CC3)c3ccccc32)CC1 [compound 132] | > 5 µM | < 25% | < 2 µM | 25 to 100% | 2 to 5 µM | 25 to 100% | > 5 µM | < 25%
12 | CC(C)(C)CCN1CCC2(CC[C@@H](NC(=O)C3CCCO3)c3ccc(F)cc32)CC1 (stereo partly shown) [compound 133] | > 5 µM | < 25% | < 2 µM | 25 to 100% | < 2 µM | 25 to 100% | < 2 µM | 25 to 100%
13 | CC(C)(C)CCN1CCC2(CC[C@@H](NC(=O)Cc3cccnc3)c3ccccc32)CC1 [compound 134] | > 5 µM | < 25% | < 2 µM | 25 to 100% | > 5 µM | < 25% | > 5 µM | < 25%
14 | CC(C)(C)CCN1CCC2(CC[C@H](NC(=O)CC3CCOCC3)c3ccccc32)CC1 [compound 135] | > 5 µM | < 25% | < 2 µM | 25 to 100% | < 2 µM | 25 to 100% | > 5 µM | < 25%
15 | CCN(C(=O)Cc1cccnc1)[C@H]1CCC2(CCN(CCC(C)(C)C)CC2)c2ccccc21 [compound 136] | > 5 µM | < 25% | < 2 µM | 25 to 100% | 2 to 5 µM | 25 to 100% | 2 to 5 µM | < 25%
16 | C[C@@H](C(=O)N[C@H]1CCC2(CCN(CCC(C)(C)C)CC2)c2ccccc21)N1CCCC1=O [compound 137] | > 5 µM | < 25% | < 2 µM | 25 to 100% | < 2 µM | 25 to 100% | > 5 µM | < 25%
17 | CC(C)(C)CCN1CCC2(CC[C@H](NC(=O)CCN3CCCC3=O)c3ccc(F)cc32)CC1 [compound 138] | > 5 µM | < 25% | < 2 µM | 25 to 100% | < 2 µM | 25 to 100% | < 2 µM | 25 to 100%
18 | C[C@@H](O)CC(=O)N[C@@H]1CCC2(CCN(CCC(C)(C)C)CC2)c2ccccc21 [compound 139] | > 5 µM | < 25% | < 2 µM | 25 to 100% | 2 to 5 µM | < 25% | > 5 µM | < 25%
19 | CCOCC(=O)N(CC)[C@H]1CCC2(CCN(CCC(C)(C)C)CC2)c2ccccc21 [compound 140] | > 5 µM | < 25% | < 2 µM | 25 to 100% | 2 to 5 µM | 25 to 100% | > 5 µM | < 25%
20 | CC#CCN(C(C)=O)[C@H]1CCC2(CCN(CCC(C)C)CC2)c2ccccc21 [compound 141] | > 5 µM | < 25% | < 2 µM | 25 to 100% | < 2 µM | 25 to 100% | > 5 µM | < 25%
21 | CC(C)CCN1CCC2(CC[C@H](N3C(=O)CCC3=O)c3ccccc32)CC1 [compound 142] | > 5 µM | < 25% | > 5 µM | < 25% | 2 to 5 µM | 25 to 100% | > 5 µM | < 25%
22 | CC(=O)N1CCCC(C(=O)N[C@@H]2CCC3(CCN(CCC(C)(C)C)CC3)c3ccccc32)C1 (stereo partly shown) [compound 143] | > 5 µM | < 25% | < 2 µM | 25 to 100% | 2 to 5 µM | 25 to 100% | > 5 µM | < 25%
23 | CN1CC(C(=O)N[C@H]2CCC3(CCN(CCC(C)(C)C)CC3)c3ccccc32)CC1=O (stereo partly shown) [compound 144] | > 5 µM | < 25% | < 2 µM | 25 to 100% | < 2 µM | 25 to 100% | < 2 µM | 25 to 100%
